# Results as given in patent US11008325B2, “Inhibitors of cancer invasion, attachment, and/or metastasis” (VIRGINIA COMMONWEALTH UNIVERSITY, priority 2016, dated 2021).
# “Also recorded” adds a separate entry of the source.
# What was measured:
# [1] = target: MDA-9/IGF-1R interactions (Homo sapiens, UniProt O00560); test: co-immunoprecipitation in DU145 and ARCaPM cells; assay type: cell-based; details: PDZ1i for 6 h
# Description: FIGS. 17A-17H. Effect of PDZ1i on invasion, MDA-9/IGF-R1 interaction and IGF-R1, STAT3 and SRC phosphorylation. FIG. 17A) Different cancer cells (25,000 cells/well) from various anatomic origins were pre-treated with either DMSO (vehicle) or PDZ1i (dose as indicated) and invasion ability was assayed using modified Boyden Chamber according to the manufacturer's instructions. Photomicrographs were taken at 10× magnification and quantification of the results of three independent experiments is provided in the graphs. The data presents mean±S.D. B) The designated cells were treated with DMSO or PDZ1i and invasion properties were determined using a modified Boyden Chamber assay (BD bioscience). RWPE-1 mda-9: mda-9 transiently overexpressing cell line. […] FIG. 17E) Cells were growth starved for 24 h and treated with either DMSO or PDZ1i (dose indicated in μM) for 6 h. Cells were treated with human recombinant IGFBP-2 (hIGFBP-2, 10 ng/ml) for 2 h, lysates were prepared and western blot analysis was conducted with specific antibodies. FIG. 17F) Cells were serum-starved for 24 h and treated with either DMSO or PDZ1i (20 μM) for 6 h. […] Cells were treated with human recombinant […] (hIGFBP-2, 1 ng/ml) for 2 h, cell lysates were prepared and analyzed by western blotting. […]
# Next, the effect of PDZ1i on MDA-9 and IGF-1R interactions was determined. […]
# [2] = target: MDA-9/Syntenin PDZ2 only domain (Homo sapiens, UniProt O00560); test: NMR [15N,1H] HSQC binding, counter domain; details: up to 100 μM compound, 20 μM protein
# Sequence of MDA-9/Syntenin PDZ2 only domain (O00560 198-273 limits assumed): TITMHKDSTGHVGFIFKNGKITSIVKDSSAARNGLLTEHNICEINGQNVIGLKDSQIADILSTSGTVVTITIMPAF
# Description: FIG. 52. Left panel, Docked structure of compound 113B7 on the surface of MDA-9/Syntenin. The docked structure is supported by NMR chemical shift mapping data. The titration (see later in FIG. 55 for chemical shift mapping and titration) allows for the calculation of an upper limit for the dissociation constant of the complex, Kd<10 μM. […] The [^15N,^1FI]-HSQC spectra of MDA-9/Syntenin PDZ2 only domain are reported in the top right panel (apo at 20 μM; in presence of 100 μM 113B7). In the bottom right panel can be seen the spectra of the PDZ domain from X11/mint scaffold protein (33% identity with PDZ1) are reported in absence (20 μM protein) and in presence of 100 μM 113B7.
# Based on these studies and NMR guided initial docking calculations, >50 bi-dentate compounds were synthesized and tested, leading to compound 113B7 (FIG. 52). […] Moreover, as a way to further address specificity of our ligands, we also tested the most promising compounds against two closely related domains to the PDZs of MDA-9/Syntenin, such as the PDZ tandem protein Harmonin (36% identity to PDZ2 of MDA-9/Syntenin and 31% to PDZ1 of MDA-9/syntenin) or PDZ domain from X11/mint scaffold protein (33% identity with PDZ1), and no significant binding to these counter-screen proteins was observed (FIG. 52).
# Sequence of MDA-9/IGF-1R interactions (O00560 2-298 limits assumed): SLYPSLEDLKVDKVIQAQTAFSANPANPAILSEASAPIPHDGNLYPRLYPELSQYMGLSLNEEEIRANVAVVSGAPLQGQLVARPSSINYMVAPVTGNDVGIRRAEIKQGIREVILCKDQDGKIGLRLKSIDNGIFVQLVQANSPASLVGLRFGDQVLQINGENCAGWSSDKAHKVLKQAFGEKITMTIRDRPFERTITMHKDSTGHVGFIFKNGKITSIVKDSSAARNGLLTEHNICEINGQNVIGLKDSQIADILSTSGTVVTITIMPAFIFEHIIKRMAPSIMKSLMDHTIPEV
smiles,measurement,setting,value
"Cc1cc(NC(=O)c2nc3[nH]c4c(c(=O)n3n2)CCC4)c(C)cc1NC(=O)CCc1nnc(-c2ccccc2)o1 [113B7, N-(2,5-dimethyl-4-(3-(5-phenyl-1,3,4-oxadiazol-2-yl)propanamido)phenyl)-8-oxo-5,6,7,8-tetrahydro-4H-cyclopenta[d][1,2,4]triazolo[1,5-a]pyrimidine-2-carboxamide]",MDA-9/IGF-1R interaction,[1],selectively inhibits
same,binding to PDZ2 domain,[2],does not bind appreciably; also recorded: does not appreciably bind; also recorded: do not significantly bind
